# ChEMBL document CHEMBL2074225, “Tissue distribution and chemical induction of multiple drug resistance genes in rats” (Drug Metab Dispos, 2002)
# Tests used:
# [1] = molecular target: Multidrug resistance protein 1a (Rattus norvegicus) (UniProt Q6PSM0); test: (§1) TP_TRANSPORTER: Branched DNA assay in vivo SD rat, liver; format: functional, organism-based; details: Sprague-Dawley
# [2] = molecular target: T1, ATP-dependent translocase ABCB1 (Rattus norvegicus, UniProt P43245); test: as §1; format: functional, organism-based, Sprague-Dawley
# T1 sequence (P43245 whole entry): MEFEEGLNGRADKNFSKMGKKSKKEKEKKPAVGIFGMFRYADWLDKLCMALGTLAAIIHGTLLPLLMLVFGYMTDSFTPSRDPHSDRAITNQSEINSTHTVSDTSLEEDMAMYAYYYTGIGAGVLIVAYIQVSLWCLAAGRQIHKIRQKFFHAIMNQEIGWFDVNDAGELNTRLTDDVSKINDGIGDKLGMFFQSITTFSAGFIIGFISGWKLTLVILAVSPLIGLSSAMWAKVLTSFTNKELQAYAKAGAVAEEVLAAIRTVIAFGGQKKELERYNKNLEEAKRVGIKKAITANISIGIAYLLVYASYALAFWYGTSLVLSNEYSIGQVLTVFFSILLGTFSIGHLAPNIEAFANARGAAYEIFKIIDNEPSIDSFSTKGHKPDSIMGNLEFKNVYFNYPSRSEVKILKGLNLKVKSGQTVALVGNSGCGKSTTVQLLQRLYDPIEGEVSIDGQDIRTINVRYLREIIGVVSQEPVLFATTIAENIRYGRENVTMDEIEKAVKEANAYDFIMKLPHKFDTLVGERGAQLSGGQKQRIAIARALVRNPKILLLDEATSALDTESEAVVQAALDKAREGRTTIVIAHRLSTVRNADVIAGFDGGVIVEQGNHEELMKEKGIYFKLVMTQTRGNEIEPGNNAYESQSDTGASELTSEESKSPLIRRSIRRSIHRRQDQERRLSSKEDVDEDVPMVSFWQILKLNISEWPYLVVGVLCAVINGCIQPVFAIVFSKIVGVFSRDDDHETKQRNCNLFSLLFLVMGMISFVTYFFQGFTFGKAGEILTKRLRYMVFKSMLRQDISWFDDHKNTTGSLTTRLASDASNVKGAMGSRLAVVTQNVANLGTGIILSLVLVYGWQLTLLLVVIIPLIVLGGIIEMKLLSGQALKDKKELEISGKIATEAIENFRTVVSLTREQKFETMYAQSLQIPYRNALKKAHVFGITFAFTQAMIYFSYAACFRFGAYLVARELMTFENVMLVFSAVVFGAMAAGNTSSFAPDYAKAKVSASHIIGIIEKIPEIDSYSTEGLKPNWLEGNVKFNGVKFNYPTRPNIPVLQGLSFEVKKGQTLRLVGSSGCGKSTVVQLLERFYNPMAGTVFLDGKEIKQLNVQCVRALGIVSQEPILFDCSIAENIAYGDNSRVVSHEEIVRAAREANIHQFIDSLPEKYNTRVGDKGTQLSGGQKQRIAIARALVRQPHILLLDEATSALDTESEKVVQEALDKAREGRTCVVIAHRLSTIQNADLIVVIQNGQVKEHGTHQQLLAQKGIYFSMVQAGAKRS
# [3] = molecular target: T1, ATP-dependent translocase ABCB1; test: TP_TRANSPORTER: Branched DNA assay in vivo SD rat, kidney; format: functional, organism-based, Sprague-Dawley
# Chain of Multidrug resistance protein 1a (Rattus norvegicus) (Q6PSM0 as listed by the source): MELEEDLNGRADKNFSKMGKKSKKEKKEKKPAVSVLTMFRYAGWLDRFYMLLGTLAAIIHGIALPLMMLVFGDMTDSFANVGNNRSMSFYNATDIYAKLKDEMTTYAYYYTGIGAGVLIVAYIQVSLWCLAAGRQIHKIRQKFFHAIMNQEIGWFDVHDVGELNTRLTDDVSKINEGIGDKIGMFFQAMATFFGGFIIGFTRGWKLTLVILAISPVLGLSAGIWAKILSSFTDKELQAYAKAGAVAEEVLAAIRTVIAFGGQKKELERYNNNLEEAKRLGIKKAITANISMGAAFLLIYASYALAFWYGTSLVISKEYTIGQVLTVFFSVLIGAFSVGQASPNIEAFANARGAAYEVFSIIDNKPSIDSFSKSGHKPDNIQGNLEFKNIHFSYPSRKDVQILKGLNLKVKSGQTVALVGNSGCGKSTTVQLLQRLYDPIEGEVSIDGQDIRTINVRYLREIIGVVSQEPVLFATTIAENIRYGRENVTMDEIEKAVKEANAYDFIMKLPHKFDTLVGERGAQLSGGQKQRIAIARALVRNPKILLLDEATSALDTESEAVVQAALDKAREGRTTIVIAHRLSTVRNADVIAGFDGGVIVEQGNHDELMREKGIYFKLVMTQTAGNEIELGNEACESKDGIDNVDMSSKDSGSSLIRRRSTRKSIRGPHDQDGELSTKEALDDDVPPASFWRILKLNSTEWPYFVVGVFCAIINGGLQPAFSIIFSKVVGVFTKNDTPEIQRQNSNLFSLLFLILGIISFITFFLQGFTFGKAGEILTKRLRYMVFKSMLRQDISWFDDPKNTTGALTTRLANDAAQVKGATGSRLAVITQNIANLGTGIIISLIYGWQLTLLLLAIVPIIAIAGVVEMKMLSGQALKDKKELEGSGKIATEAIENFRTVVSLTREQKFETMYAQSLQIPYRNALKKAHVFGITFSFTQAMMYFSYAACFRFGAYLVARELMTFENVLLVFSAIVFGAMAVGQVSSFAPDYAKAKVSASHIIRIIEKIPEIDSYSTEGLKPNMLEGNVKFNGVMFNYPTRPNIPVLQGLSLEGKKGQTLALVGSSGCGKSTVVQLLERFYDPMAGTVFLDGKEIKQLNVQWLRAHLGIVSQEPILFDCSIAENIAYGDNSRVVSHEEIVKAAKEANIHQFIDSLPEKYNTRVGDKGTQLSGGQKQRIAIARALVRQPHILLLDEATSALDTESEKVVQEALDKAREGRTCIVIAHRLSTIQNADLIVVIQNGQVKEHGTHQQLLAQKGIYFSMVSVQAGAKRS
Structure (SMILES),Activity [1],Activity [2],Activity [3]
C=CCSCC=C,inducer [+],,
OCc1c[nH]c2ccccc12 [INDOLE-3-CARBINOL],,inducer [+],
Clc1ccc(-c2cc(Cl)c(Cl)cc2Cl)c(Cl)c1 [POLYCHLORINATED BIPHENYL 99],,inducer [+],
CN(N=O)C(=O)N[C@@H](C=O)[C@@H](O)[C@H](O)[C@H](O)CO [STREPTOZOCIN],,inducer [+],inducer [+]

# Second part, the compound after the results:
Activity [1],Activity [2],Activity [3],Structure (SMILES)
inducer [+],,,Cc1c(-c2cnccn2)ssc1=S
inducer [+],,,NNC(=O)c1ccncc1
